In patent publication US20070155764A1, “NOVEL SUBSTITUTED PYRIMIDINYLOXY UREAS USEFUL AS INHIBITORS OF PROTEIN KINASES” (KALYPSYS, INC., priority 2005, published 2007):

Experiments:
Assay type in all cases: biochemical
[1] = biological target: T1, human B-Raf protein kinase (Homo sapiens, UniProt P15056); experiment: In vitro B-Raf/Mek1 composite kinase assay; conditions: recombinant GST-tagged human B-Raf (Δ1-415) with inactive Mek1, 2 μM ATP
T1 construct: GST (N); purchased Upstate Inc. 14-530 (B-Raf); 14-420 (Mek1)
T1 sequence (P15056 416-766): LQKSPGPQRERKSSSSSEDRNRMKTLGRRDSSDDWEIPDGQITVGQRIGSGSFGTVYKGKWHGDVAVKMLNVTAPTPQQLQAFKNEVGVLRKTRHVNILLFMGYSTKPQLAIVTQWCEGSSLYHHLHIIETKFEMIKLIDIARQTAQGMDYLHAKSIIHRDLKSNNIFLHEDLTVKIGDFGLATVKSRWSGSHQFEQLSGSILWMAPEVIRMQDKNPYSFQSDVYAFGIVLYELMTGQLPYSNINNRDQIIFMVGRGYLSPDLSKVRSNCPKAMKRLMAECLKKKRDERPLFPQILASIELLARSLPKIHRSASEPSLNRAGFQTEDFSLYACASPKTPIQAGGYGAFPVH
Experimental: In Vitro B-Raf/Mek1 Composite Kinase Assay
2.5 μl of B-Raf kinase buffer (20 mM MOPS [pH 7.2], 25 mM sodium glycerophosphate, 2 mM EGTA [pH 8.0], 1 mM sodium orthovanadate, 1 mM dithiothreitol, 10 mM MgCl2, 0.03% Brij-35, 0.3 mg/ml bovine serum albumin) containing 1 ng of recombinant, N-terminal GST-tagged human B-Raf protein kinase (Δ1-415, Upstate Inc., cat. #14-530) is dispensed to wells of a 1536 multi-well white solid plate. 60 nl of 100× concentration of test compound in DMSO is dispensed to the well by passive pin transfer and incubated for 15 minutes at room temperature (approx. 22° C.). […] The assay plates are sealed and maintained in a humidified environment. After 2 hours, 2.5 μl of PKLight protein kinase assay reagent (Cambrex, cat. #LT07-501) is dispensed. After an additional 5 minute incubation at room temperature, luminescence activity is measured on a Molecular Devices Analyst multi-mode plate reader or other suitable plate reader. Kinase inhibition results in less ATP depletion, and therefore increased luminescence signal. Negative control activity is measured with DMSO lacking any test compound. The positive control is [N-(3-trifluoromethyl-4-chlorophenyl)-N′-(4-(2-methylcarbamoyl-pyridin-4-yl)oxyphenyl)urea], aka Bay 43-9006. Efficacy is measured as a percentage of positive control activity.

[2] = biological target: T2, VEGFR2 kinase (Homo sapiens, UniProt P35968); experiment: In vitro VEGFR2 kinase assay; conditions: ADP Quest assay, poly Glu:Tyr substrate, 60 μM ATP
T2 construct: purchased Invitrogen Inc PV3660
T2 sequence (P35968 20-1356): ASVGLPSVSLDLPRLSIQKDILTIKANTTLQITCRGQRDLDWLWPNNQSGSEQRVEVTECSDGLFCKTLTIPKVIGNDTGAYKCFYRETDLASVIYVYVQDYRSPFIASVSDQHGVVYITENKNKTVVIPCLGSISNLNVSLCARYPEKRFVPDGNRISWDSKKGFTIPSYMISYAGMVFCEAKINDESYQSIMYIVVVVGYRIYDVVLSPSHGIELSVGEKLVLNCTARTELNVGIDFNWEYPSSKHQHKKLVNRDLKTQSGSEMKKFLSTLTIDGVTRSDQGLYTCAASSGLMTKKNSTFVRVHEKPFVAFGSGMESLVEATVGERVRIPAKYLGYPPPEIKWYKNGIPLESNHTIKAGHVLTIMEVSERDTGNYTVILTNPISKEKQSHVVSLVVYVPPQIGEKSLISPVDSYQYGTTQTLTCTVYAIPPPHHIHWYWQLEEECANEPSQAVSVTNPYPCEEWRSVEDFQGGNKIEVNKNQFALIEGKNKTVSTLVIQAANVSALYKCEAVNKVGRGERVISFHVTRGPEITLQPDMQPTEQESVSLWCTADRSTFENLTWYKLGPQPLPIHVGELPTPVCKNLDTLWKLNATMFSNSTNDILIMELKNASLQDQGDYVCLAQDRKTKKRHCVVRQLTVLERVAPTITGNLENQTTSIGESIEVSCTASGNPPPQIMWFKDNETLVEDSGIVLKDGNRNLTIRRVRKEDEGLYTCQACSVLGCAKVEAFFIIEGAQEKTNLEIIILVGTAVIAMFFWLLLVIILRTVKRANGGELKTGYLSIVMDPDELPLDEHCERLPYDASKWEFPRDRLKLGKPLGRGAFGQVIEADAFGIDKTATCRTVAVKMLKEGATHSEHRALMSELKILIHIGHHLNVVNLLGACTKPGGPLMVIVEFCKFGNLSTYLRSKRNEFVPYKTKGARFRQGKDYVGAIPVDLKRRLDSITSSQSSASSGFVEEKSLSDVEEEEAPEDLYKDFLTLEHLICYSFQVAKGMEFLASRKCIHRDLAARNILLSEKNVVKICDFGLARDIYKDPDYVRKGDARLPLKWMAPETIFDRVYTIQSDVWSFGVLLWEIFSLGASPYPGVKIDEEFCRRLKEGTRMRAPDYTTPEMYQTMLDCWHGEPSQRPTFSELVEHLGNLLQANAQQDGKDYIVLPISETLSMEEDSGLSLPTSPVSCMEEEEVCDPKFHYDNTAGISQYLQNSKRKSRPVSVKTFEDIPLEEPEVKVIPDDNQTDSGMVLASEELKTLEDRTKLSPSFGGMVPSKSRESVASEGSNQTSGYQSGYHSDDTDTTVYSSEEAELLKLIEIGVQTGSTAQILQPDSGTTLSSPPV
Experimental: (§1) In vitro vegfr2 and PDGFRβ Kinase Assays
(§2) 2.5 μl of ADP Quest assay buffer (DiscoverX Inc., cat. #90-0071) containing 20 ng VEGFR2 kinase (Invitrogen Inc, cat. #PV3660) or 25 ng PDGFRβ kinase (Invitrogen Inc., cat. #P3082) is dispensed to wells of a 1536 multi-well, black solid plate. 60 nl of 100× concentration of test compound in DMSO is dispensed to the well by passive pin transfer and incubated for 10 minutes at room temperature (approx. 22° C.). 2.5 μl of ADP Quest assay buffer containing 0.25 μg of poly Glu:Tyr (4:1) substrate peptide (Upstate Inc., cat. #12-440) and 60 μM ATP is then dispensed and the kinase reaction allowed to incubate at 30° C. for 2 hours. The assay plates are sealed and maintained in a humidified environment. After the 2 hour incubation, 2 μl of ADP Quest assay reagent A, followed by 2 μl of assay reagent B, is added. After an additional 30 minute incubation at room temperature, fluorescence intensity is measured on a Molecular Devices Aquest multi-mode plate reader or other suitable plate reader (fluorescence excitation filter: 530/25 [Peak (nm)/FWHM passband (nm)]; dichroic beamsplitter: 561 nm longpass; fluorescence emission filter: 580/10 [Peak (nm)/FWHM passband (nm)]. The assay measures the conversion of a non-fluoresecent molecule to fluorescent resorutin, which correlates with kinase activity. Negative control activity is measured with DMSO lacking any test compound. The positive control is [N-(3-trifluoromethyl-4-chlorophenyl)-N′-(4-(2-methylcarbamoyl-pyridin-4-yl)oxyphenyl)urea], aka Bay 43-9006. Efficacy is measured as a percentage of positive control activity.

[3] = biological target: T3, PDGFRβ kinase (Homo sapiens, UniProt P09619); experiment: In vitro PDGFRβ kinase assay; conditions: ADP Quest assay, poly Glu:Tyr substrate, 60 μM ATP
T3 construct: purchased Invitrogen Inc. P3082
T3 sequence (P09619 33-1106): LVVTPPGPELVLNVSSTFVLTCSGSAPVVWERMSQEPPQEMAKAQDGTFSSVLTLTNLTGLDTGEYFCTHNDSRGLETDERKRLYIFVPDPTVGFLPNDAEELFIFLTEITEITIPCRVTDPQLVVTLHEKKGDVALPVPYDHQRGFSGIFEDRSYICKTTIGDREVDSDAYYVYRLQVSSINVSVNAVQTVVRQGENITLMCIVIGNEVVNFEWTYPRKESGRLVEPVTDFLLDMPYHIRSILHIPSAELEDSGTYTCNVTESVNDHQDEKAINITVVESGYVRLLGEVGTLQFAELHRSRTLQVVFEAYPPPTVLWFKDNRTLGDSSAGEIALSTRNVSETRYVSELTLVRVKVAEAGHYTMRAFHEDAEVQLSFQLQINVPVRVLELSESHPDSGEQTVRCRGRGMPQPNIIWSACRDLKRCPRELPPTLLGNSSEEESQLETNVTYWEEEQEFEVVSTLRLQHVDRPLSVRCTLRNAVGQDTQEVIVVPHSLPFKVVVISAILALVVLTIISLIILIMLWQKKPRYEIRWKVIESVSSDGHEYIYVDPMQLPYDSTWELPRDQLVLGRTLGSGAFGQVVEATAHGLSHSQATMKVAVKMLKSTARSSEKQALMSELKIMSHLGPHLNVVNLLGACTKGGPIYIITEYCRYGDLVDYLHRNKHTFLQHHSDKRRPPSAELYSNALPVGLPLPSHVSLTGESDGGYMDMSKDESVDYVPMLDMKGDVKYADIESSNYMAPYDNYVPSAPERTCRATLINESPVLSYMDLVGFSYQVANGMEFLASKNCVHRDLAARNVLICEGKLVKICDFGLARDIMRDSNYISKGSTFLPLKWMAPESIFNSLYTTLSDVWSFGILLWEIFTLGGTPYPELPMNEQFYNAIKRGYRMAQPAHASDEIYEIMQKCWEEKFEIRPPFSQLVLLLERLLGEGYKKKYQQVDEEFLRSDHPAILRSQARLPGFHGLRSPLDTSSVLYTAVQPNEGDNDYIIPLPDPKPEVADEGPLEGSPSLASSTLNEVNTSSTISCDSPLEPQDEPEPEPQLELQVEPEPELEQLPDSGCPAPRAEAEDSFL
Experimental: as §1, §2

Row | Compound | IC50 [1] [µM] | IC50 [2] [µM] | IC50 [3] [µM]
1 | O=C(Nc1cccc(Oc2cc(-c3nnco3)ncn2)c1)Nc1ccc(C(F)(F)F)c(Cl)c1 [Example 48, 1-(3-(6-(1,3,4-Oxadiazol-2-yl)pyrimidin-4-yloxy)phenyl)-3-(3-chloro-4-(trifluoromethyl)phenyl)urea] | ≤ 10 | ≤ 10 | ≤ 10
2 | O=C(Nc1cccc(Oc2cc(-c3cnn(Cc4ccccc4)c3)ncn2)c1)Nc1ccc(Cl)c(C(F)(F)F)c1 [Example 49, 1-(3-(6-(1-Benzyl-1H-pyrazol-4-yl)pyrimidin-4-yloxy)phenyl)-3-(4-chloro-3-(trifluoromethyl)phenyl)urea] | ≤ 10 | > 10 | > 10
3 | CN(C)CCNc1nc(-c2cc(Oc3cccc(NC(=O)Nc4ccc(Cl)c(C(F)(F)F)c4)c3)ncn2)cs1 [Example 50, 1-(4-Chloro-3-(trifluoromethyl)phenyl)-3-(3-(6-(2-(2-(dimethylamino)ethylamino)thiazol-4-yl)pyrimidin-4-yloxy)phenyl)urea] | ≤ 10 | ≤ 10 | ≤ 10
4 | COC(=O)Cn1cc(-c2cc(Oc3cccc(NC(=O)Nc4ccc(Cl)c(C(F)(F)F)c4)c3)ncn2)cn1 [Example 54, Methyl 2-(4-(6-(3-(3-(4-chloro-3-(trifluoromethyl)phenyl)ureido)phenoxy)pyrimidin-4-yl)-1H-pyrazol-1-yl)acetate] | ≤ 10 | ≤ 10 | ≤ 10
5 | CNC(=O)Cn1cc(-c2cc(Oc3cccc(NC(=O)Nc4ccc(Cl)c(C(F)(F)F)c4)c3)ncn2)cn1 [Example 56, 2-(4-(6-(3-(3-(4-Chloro-3-(trifluoromethyl)phenyl)ureido)phenoxy)pyrimidin-4-yl)-1H-pyrazol-1-yl)-N-methylacetamide] | ≤ 10 | ≤ 10 | ≤ 10
6 | Cn1cc(-c2cc(Oc3cc(NC(=O)Nc4ccc(Cl)c(C(F)(F)F)c4)c(F)cc3F)ncn2)cn1 [Example 57, 1-(4-Chloro-3-(trifluoromethyl)phenyl)-3-(2,4-difluoro-5-(6-(1-methyl-1H-pyrazol-4-yl)pyrimidin-4-yloxy)phenyl)urea] | ≤ 10 | ≤ 10 | ≤ 10
7 | COC(=O)Cn1ccc(-c2cc(Oc3cccc(NC(=O)Nc4ccc(Cl)c(C(F)(F)F)c4)c3)ncn2)n1 [Example 58, Methyl 2-(3-(6-(3-(3-(4-chloro-3-(trifluoromethyl)phenyl)ureido)phenoxy)pyrimidin-4-yl)-1H-pyrazol-1-yl)acetate] | ≤ 10 | ≤ 10 | ≤ 10
8 | CNC(=O)Cn1ccc(-c2cc(Oc3cccc(NC(=O)Nc4ccc(Cl)c(C(F)(F)F)c4)c3)ncn2)n1 [Example 60, 2-(3-(6-(3-(3-(4-Chloro-3-(trifluoromethyl)phenyl)ureido)phenoxy)pyrimidin-4-yl)-1H-pyrazol-1-yl)-N-methylacetamide] | ≤ 10 | ≤ 10 | ≤ 10
9 | O=C(Nc1cccc(Oc2cc(-c3ccn(CCO)n3)ncn2)c1)Nc1ccc(Cl)c(C(F)(F)F)c1 [Example 63, 1-(4-Chloro-3-(trifluoromethyl)phenyl)-3-(3-(6-(1-(2-hydroxyethyl)-1H-pyrazol-3-yl)pyrimidin-4-yloxy)phenyl)urea] | ≤ 10 | > 10 | > 10
10 | Cn1cc(-c2nccc(Oc3cc(NC(=O)Nc4ccc(Cl)c(C(F)(F)F)c4)c(F)cc3F)n2)cn1 [Example 67, 1-(4-Chloro-3-(trifluoromethyl)phenyl)-3-(2,4-difluoro-5-(2-(1-methyl-1H-pyrazol-4-yl)pyrimidin-4-yloxy)phenyl)urea] | ≤ 10 | ≤ 10 | ≤ 10
11 | CC(C)n1cc(-c2cc(Oc3cccc(NC(=O)Nc4ccc(Cl)c(C(F)(F)F)c4)c3)ncn2)cn1 [Example 68, 1-(4-Chloro-3-(trifluoromethyl)phenyl)-3-(3-(6-(1-isopropyl-1H-pyrazol-4-yl)pyrimidin-4-yloxy)phenyl)urea] | ≤ 10 | > 10 | ≤ 10

The remaining lines, values ahead:

Row | IC50 [1] [µM] | IC50 [2] [µM] | IC50 [3] [µM] | Compound
12 | ≤ 10 | ≤ 10 | ≤ 10 | Cc1nc(-c2cc(Oc3cccc(NC(=O)Nc4ccc(Cl)c(C(F)(F)F)c4)c3)ncn2)cs1 [Example 46, 1-(4-Chloro-3-(trifluoromethyl)phenyl)-3-(3-(6-(2-methylthiazol-4-yl)pyrimidin-4-yloxy)phenyl)urea]
13 | ≤ 10 | ≤ 10 | ≤ 10 | CN1CCC(OCc2cc(NC(=O)Nc3ccc(Oc4ccnc(-c5nnco5)c4)cc3)cc(C(F)(F)F)c2)CC1 [Example 47, 1-(4-(2-(1,3,4-Oxadiazol-2-yl)pyridin-4-yloxy)phenyl)-3-(3-((1-methylpiperidin-4-yloxy)methyl)-5-(trifluoromethyl)phenyl)urea]
14 | ≤ 10 | ≤ 10 | ≤ 10 | Cc1cn(-c2cc(NC(=O)Nc3ccc(Oc4cc(-c5cnn(C)c5)ncn4)cc3)cc(C(F)(F)F)c2)cn1 [Example 51, 1-(3-(4-Methyl-1H-imidazol-1-yl)-5-(trifluoromethyl)phenyl)-3-(4-(6-(1-methyl-1H-pyrazol-4-yl)pyrimidin-4-yloxy)phenyl)urea]
15 | ≤ 10 | ≤ 10 | ≤ 10 | COCCOc1ccc(NC(=O)Nc2ccc(Oc3cc(-c4cnn(C)c4)ncn3)cc2)cc1C(F)(F)F [Example 52, 1-(4-(2-Methoxyethoxy)-3-(trifluoromethyl)phenyl)-3-(4-(6-(1-methyl-1H-pyrazol-4-yl)pyrimidin-4-yloxy)phenyl)urea]
16 | > 10 | ≤ 10 | ≤ 10 | COCCOc1ccc(NC(=O)Nc2ccc(Oc3cc(-c4nnco4)ncn3)cc2)cc1C(F)(F)F [Example 53, 1-(4-(6-(1,3,4-Oxadiazol-2-yl)pyrimidin-4-yloxy)phenyl)-3-(4-(2-methoxyethoxy)-3-(trifluoromethyl)phenyl)urea]
17 | ≤ 10 | ≤ 10 | ≤ 10 | NC(=O)Cn1ccc(-c2cc(Oc3cccc(NC(=O)Nc4ccc(Cl)c(C(F)(F)F)c4)c3)ncn2)n1 [Example 59, 2-(3-(6-(3-(3-(4-Chloro-3-(trifluoromethyl)phenyl)ureido)phenoxy)pyrimidin-4-yl)-1H-pyrazol-1-yl)acetamide]
18 | ≤ 10 | > 10 | > 10 | Cn1ccc(-c2cc(Oc3cccc(NC(=O)Nc4ccc(Cl)c(C(F)(F)F)c4)c3)ncn2)n1 [Example 61, 1-(4-Chloro-3-(trifluoromethyl)phenyl)-3-(3-(6-(1-methyl-1H-pyrazol-3-yl)pyrimidin-4-yloxy)phenyl)urea]
19 | ≤ 10 | ≤ 10 | ≤ 10 | Cn1nccc1-c1cc(Oc2cccc(NC(=O)Nc3ccc(Cl)c(C(F)(F)F)c3)c2)ncn1 [Example 62, 1-(4-Chloro-3-(trifluoromethyl)phenyl)-3-(3-(6-(1-methyl-1H-pyrazol-5-yl)pyrimidin-4-yloxy)phenyl)urea]
20 | ≤ 10 | ≤ 10 | ≤ 10 | N#CCn1cc(-c2cc(Oc3cccc(NC(=O)Nc4ccc(Cl)c(C(F)(F)F)c4)c3)ncn2)cn1 [Example 64, 1-(4-Chloro-3-(trifluoromethyl)phenyl)-3-(3-(6-(1-(cyanomethyl)-1H-pyrazol-4-yl)pyrimidin-4-yloxy)phenyl)urea]
21 | ≤ 10 | > 10 | > 10 | Cc1nn(C)c(C)c1-c1cc(Oc2cccc(NC(=O)Nc3ccc(Cl)c(C(F)(F)F)c3)c2)ncn1 [Example 69, 1-(4-Chloro-3-(trifluoromethyl)phenyl)-3-(3-(6-(1,3,5-trimethyl-1H-pyrazol-4-yl)pyrimidin-4-yloxy)phenyl)urea]
